# Data published in patent US20080262017A1, “Sugar-Free Storage-Stable Antihistaminic Syrups” (priority 2006, published 2008).
# Read-outs that look alike come from different tables or passages of the source.
# Legend:
# [1] = Desloratadine stability (assay, regression analysis); type: physicochemical; conditions: Example 1 formulation, regression analysis of data through 18 months
# Description: Data obtained through 18 months at 25° C./60% RH and 30° C./65% RH were evaluated by regression analysis in order to determine a suitable shelf life (see FIGS. 2A and 2B).
# [2] = cited from earlier work
# [3] = Example 1 formulation; throughout the 18 month stability interval
# Description: (§1) Three batches of the exemplary formulation detailed in Example 1 were manufactured (referred to herein as Batches A, B, and C) and packaged in two different sizes of amber glass bottles (120 mL and 15 mL).
# [4] = Sodium benzoate assay; type: physicochemical; conditions: Example 1 formulation; throughout the 18 month stability interval
# Description: as §1
smiles,measurement,setting,value
"Clc1ccc2c(c1)CCc1cccnc1C2=C1CCNCC1 [Desloratadine, 8-chloro-6,11-dihydro-11-(4-piperidinylidene)-5H-benzo[5,6]cyclohepta[1,2-b]pyridine]",predicted desloratadine assay value over a 24 month shelf life,[1]; stored at 25° C./60% RH,100.9%
same,predicted desloratadine assay value over a 24 month shelf life,[1]; stored at 30° C./65% RH,98.9%
same,solubility,[2]; in ethanol,very soluble
same,solubility,[2]; in propylene glycol,very soluble
same,solubility,[2]; in water,slightly soluble
"O=C([O-])CN(CCN(CC(=O)[O-])CC(=O)O)CC(=O)O.[Na+].[Na+] [EDTA, Edetate Disodium]",EDTA assay trend,[3],no degradation trend
O=C([O-])c1ccccc1.[Na+] [sodium benzoate],sodium benzoate assay trend,[4],no degradation trend
